Measurements reported in article PMC8769072, “Proteome‐scale mapping of binding sites in the unstructured regions of the human proteome” (Molecular Systems Biology, 2022).

Test system: immobilized GST-tagged bait protein domains
Assay: ProP-PD phage selections (HD2 P8, sublibraries, HD2 P3, HD1 P8) with NGS and confidence level
Assay type: binding, human
Settings: for HD confidence / HD count proportions / HD mean counts: library HD
[1] = bait CALM1_EF-hand__P0DP23_2_149, library HD2, benchmarking set of validated motif instances, TRUE = motif instance recovered in the ProP-PD selection
[2] = library HD2, bait EPS15_EH__P42566_121_215, best matching peptide
[3] = library HD2, bait EPS15_EH__P42566_121_215, confidence level of best matching peptide (4 High, 2-3 Medium, 1 Low)
[4] = library HD2, bait EPS15_EH__P42566_121_215, whether the validated benchmark motif instance was recovered in the ProP-PD selection (TRUE/FALSE)
[5] = bait PABP-B_PABP__P11940_544_623, HD2 library, confidence level (1-4) of best matching selected peptide
[6] = bait PABP-B_PABP__P11940_544_623, HD2 library, specificity score of best matching selected peptide
[7] = bait PABP-B_PABP__P11940_544_623, HD2 library, whether the validated benchmark motif instance was recovered in the ProP-PD selection (TRUE/FALSE)
[8] = bait SIN3A_PAH__Q96ST3_295_383, HD2 library, whether the validated benchmark motif instance was recovered in the ProP-PD selection (TRUE/FALSE)
[9] = library HD2, bait YAP1_WW_1_P46937_169_207, validated benchmark motif instance, in_library_check TRUE, TRUE/FALSE = instance recovered in ProP-PD selection
[10] = HD2 library, bait TNKS_TANK-peptide-bind__O95271_174_649, known motif instance of the benchmarking set found (TRUE) or not found (FALSE) among selected peptides
[11] = bait ANKRA2_Ank__Q9H9E1_142_313
[12] = bait ANKRA2_Ank__Q9H9E1_142_313, mean normalised NGS counts
[13] = bait ANKRA2_Ank__Q9H9E1_142_313, mean raw NGS counts, all selections
[14] = HD2 library, bait CALM1_EF-hand__P0DP23_2_149, benchmark motif instance, in_library_check FALSE, in_library_coverage 0
[15] = bait PTK2_Focal-AT__Q05397_891_1050, HD2 library, whether the validated benchmark motif instance was recovered in the ProP-PD selection (TRUE/FALSE)
[16] = HD2 library, bait TLN1_PTB__Q9Y490_309_401, known motif instance of the benchmarking set found (TRUE) or not found (FALSE) among selected peptides
[17] = library HD2, bait KLC1_TPR__Q07866_203_497, whether the validated benchmark motif instance was recovered in the ProP-PD selection (TRUE/FALSE)
[18] = bait AP2B1_adaptin__P63010_700_937, library HD2, benchmarking set of validated motif instances, TRUE = motif instance recovered in the ProP-PD selection
[19] = bait KPNA4_Arm (O00629 68-487), HD2 library, benchmark motif instance recovered in the ProP-PD selection (TRUE/FALSE)

Substance: LNKYQGFIFDIVTK [SCN5A]
- motif_found [1]: FALSE

Substance: LNPFLTKSSGDVHLSI
- best_specificity [2]: 1
- best_confidence [3]: 4
- motif_found [4]: TRUE

Substance: LNPNAEVWGAPVLHLE
- best_confidence [5]: 4
- best_specificity [6]: 1
- motif_found [7]: TRUE

Substance: LNQDFSGFQLLVDVALKRAAEM
- motif_found [8]: FALSE

Substance: LPIPGTPPPNYDSLRLQP
- motif_found (bait NEDD4_WW_4_P46934_890_928, HD2 library, whether the validated benchmark motif instance was recovered in the ProP-PD selection (TRUE/FALSE)): FALSE
- motif_found [9]: FALSE

Substance: LPLEFSDDLDVVGDGMQC
- motif_found (library HD2, bait WDR5_WD_1234567_P61964_21_334, validated benchmark motif instance, in_library_check TRUE, TRUE/FALSE = instance recovered in ProP-PD selection): FALSE

Substance: LPLYTSPSLPNITLGLP,PLPLYTSPSLPNITLGLPATGPSA [HDAC4]
- motif_found (bait ANKRA2_Ank__Q9H9E1_142_313, library HD2, benchmarking set of validated motif instances, TRUE = motif instance recovered in the ProP-PD selection): TRUE

Substance: LPRTQPDGTSVPGEPA
- best_specificity (HD2 library, bait TNKS_TANK-peptide-bind__O95271_174_649, best matching selected peptide): 1
- best_confidence (HD2 library, bait TNKS_TANK-peptide-bind__O95271_174_649, confidence level of best matching selected peptide): 2
- motif_found [10]: TRUE

Substance: LQDVQPSPINPFSAFF
- best_specificity [2]: 1
- best_confidence [3]: 2
- motif_found [4]: TRUE

Substance: LQLPSLDDQVIPARLP
- HD confidence [11]: 3
- HD count proportions [12]: 0.001339
- HD mean counts [13]: 12.75

Substance: LQQSIAREPSAPSIPTPAYQ
- motif_found (library HD2, bait TSG101_UEV__Q99816_1_145, validated benchmark motif instance, in_library_check TRUE, TRUE/FALSE = instance recovered in ProP-PD selection): FALSE

Substance: LQYFRDHINDIIKIQAFIRANKARDDYKTLINA [IQGAP1 836-854]
- motif_found [14]: FALSE

Substance: LRRGQILWFRGLNRIQTQIDVINTFQTGASFKGVLRRQNMGQHLDVKLVPSSSYIKVVKAFHSS [ATP2B4]
- motif_found [1]: FALSE

Substance: LSELDRLLLELN
- motif_found [15]: FALSE

Substance: LSKLDVLVLAASYIAH
- HD2_nucleus confidence (bait SIN3A_PAH__Q96ST3_295_383, library HD2 P8 nucleus): 4

Substance: LSKMQQNGYENPTYKFFEQMQN
- motif_found [16]: FALSE

Substance: LSLGSAGERGEAEGCPPSREAE
- motif_found [10]: FALSE

Substance: LSSPLVPGNPFEEPTCINP
- motif_found [4]: FALSE

Substance: LSVNAPEFYPSGYSSS
- best_confidence [5]: 3
- best_specificity [6]: 1
- motif_found [7]: TRUE

Substance: LSVSPARWAEEYLEQSEEK
- motif_found (bait PEX14_Pex14__O75381_16_84, HD2 library, whether the validated benchmark motif instance was recovered in the ProP-PD selection (TRUE/FALSE)): FALSE

Substance: LSWPDLLSDPSIVGSN
- HD2-1mM_CaCl confidence (bait CALM1 EF-hand (P0DP23, 2-149), HD2 library selection with 1mM_CaCl, confidence level (4 = High, 2 or 3 = Medium, 1 = Low)): 3
- HD2 confidence (bait CALM1 EF-hand (P0DP23, 2-149), HD2 library selection, confidence level (4 = High, 2 or 3 = Medium, 1 = Low)): 3

Substance: LYKEATSTFTNITYRGT-----
- motif_found [16]: FALSE

Substance: LYNFPQSPPAQYSPMH
- HD2_nc confidence (bait CEP55_EABR__Q53EZ4_160_217, HD2 P8 nucleocytoplasmic sublibrary, confidence level (4 = High, 2-3 = Medium, 1 = Low)): 4
- HD2_nc mean counts (bait CEP55_EABR__Q53EZ4_160_217, HD2 P8 nucleocytoplasmic sublibrary, mean NGS counts over replicate selections): 101.3
- HD2_nc count proportions (bait CEP55_EABR__Q53EZ4_160_217, HD2 P8 nucleocytoplasmic sublibrary, mean proportion of NGS counts): 0.001637

Substance: LYPTDCPPSYEAVMGL
- p3_HD2 confidence (bait NEDD4_WW_4_P46934_890_928, HD2 P3 library, confidence level (4 = High, 2-3 = Medium, 1 = Low)): 3
- p3_HD2 mean counts (bait NEDD4_WW_4_P46934_890_928, HD2 P3 library, mean NGS counts over replicate selections): 285.3
- p3_HD2 count proportions (bait NEDD4_WW_4_P46934_890_928, HD2 P3 library, mean proportion of NGS counts): 0.005597
- HD2_cytoplasm confidence (bait NEDD4_WW_4_P46934_890_928, HD2 P8 cytoplasm sublibrary, confidence level (4 = High, 2-3 = Medium, 1 = Low)): 4

Substance: MDDLDALLADLESTTSHIS
- motif_found [15]: FALSE

Substance: MDVFMKGLSKAKEGVVAAA [SNCA]
- motif_found [1]: FALSE

Substance: MSARPSLPPLPAKPAG
- HD confidence [11]: 2
- HD2 confidence (bait ANKRA2_Ank__Q9H9E1_142_313, library HD2 P8): 2
- HD count proportions [12]: 0.0001907
- HD mean counts [13]: 3.25

Substance: MSIETLLEAARFLEWQAQQQ
- motif_found [8]: FALSE

Substance: MSSLYPSLEDLKVDQA
- HD confidence (bait PDCD6IP_Alix-V-domain__Q8WUM4_360_702): 2
- p3_HD2 confidence (bait PDCD6IP_Alix-V-domain__Q8WUM4_360_702, library HD2 P3): 3
- p3_HD2 count proportions (bait PDCD6IP_Alix-V-domain__Q8WUM4_360_702, library HD2 P3, mean normalised NGS counts): 0.4191
- p3_HD2 mean counts (bait PDCD6IP_Alix-V-domain__Q8WUM4_360_702, library HD2 P3, mean raw NGS counts, all selections): 20392.666666666668
- HD2 confidence (bait PDCD6IP_Alix-V-domain__Q8WUM4_360_702, library HD2 P8): 4
- HD2_nc confidence (bait PDCD6IP_Alix-V-domain__Q8WUM4_360_702, library HD2 P8 nucleocytoplasmic): 3
- HD2_nc count proportions (bait PDCD6IP_Alix-V-domain__Q8WUM4_360_702, library HD2 P8 nucleocytoplasmic, mean normalised NGS counts): 0.343
- HD2_nc mean counts (bait PDCD6IP_Alix-V-domain__Q8WUM4_360_702, library HD2 P8 nucleocytoplasmic, mean raw NGS counts, all selections): 24438.333333333332
- HD count proportions (bait PDCD6IP_Alix-V-domain__Q8WUM4_360_702, mean normalised NGS counts): 0.4404
- HD mean counts (bait PDCD6IP_Alix-V-domain__Q8WUM4_360_702, mean raw NGS counts, all selections): 2175.8

Substance: NATRQQQLEWDDSTLSY-----
- motif_found [17]: FALSE

Substance: NDIDEVIIPTAPLYKQILNL [TSG101 319-324]
- motif_found (HD2 library, bait TSG101_UEV__Q99816_1_145, benchmark motif instance, in_library_check FALSE, in_library_coverage 0): FALSE

Substance: NEEINIASSDSEVEIVGVQEHARC
- motif_found (HD2 library, bait SUMO1_SUMO__P63165_1_101, known motif instance of the benchmarking set found (TRUE) or not found (FALSE) among selected peptides): FALSE

Substance: NGAEDDDDDEFGEFGGFSEVS [AFTPH]
- motif_found [18]: FALSE

Substance: NGSSSVNWPPEFRPGEPWKGYPNIDPET
- motif_found [7]: FALSE

Substance: NHWQKIRTMVNLPVISPFK [ITPKA 165-183]
- motif_found [14]: FALSE

Substance: NIHNSKAPKKNRLRRKSSTR
- motif_found [19]: FALSE

Substance: NKKVEVIDLTIDSSSD
- best_confidence (bait SUMO1_SUMO__P63165_1_101, HD2 library, confidence level (1-4) of best matching selected peptide): 4
- best_specificity (bait SUMO1_SUMO__P63165_1_101, HD2 library, specificity score of best matching selected peptide): 1
- motif_found (bait SUMO1_SUMO__P63165_1_101, HD2 library, whether the validated benchmark motif instance was recovered in the ProP-PD selection (TRUE/FALSE)): TRUE

Substance: NLEEKKRYDREFLLGFQFIFA
- motif_found (library HD2, bait EIF4E_eIF4E__P06730_1_217, whether the validated benchmark motif instance was recovered in the ProP-PD selection (TRUE/FALSE)): FALSE

Substance: NLNGTIKDDFSEFDNLRTSKKTAE [EPN2]
- motif_found [18]: FALSE

Substance: NLQLPSLDEQVIPARL
- HD confidence [11]: 3
- HD count proportions [12]: 0.0005556
- HD mean counts [13]: 7.75

Substance: NMTPYRSPPPYVPP----
- motif_found (bait NEDD4_WW_4 (P46934 890-928), HD2 library, benchmark motif instance recovered in the ProP-PD selection (TRUE/FALSE)): FALSE
- motif_found [9]: FALSE

Substance: NPFLAPGAPATSAPVN
- best_specificity [2]: 1
- best_confidence [3]: 3
- motif_found [4]: TRUE

Substance: NPNAKEFVPGVKYGNI
- best_confidence [5]: 2
- best_specificity [6]: 1
- motif_found [7]: TRUE

Substance: NRVAYIEFPPPPPLDADQI
- motif_found (library HD2, bait VASP_EVH1__P50552_1_114, validated benchmark motif instance, in_library_check TRUE, TRUE/FALSE = instance recovered in ProP-PD selection): FALSE

Substance: NSVTSTNLEWDDSAIAPSSEDYDF
- motif_found [17]: FALSE

Substance: NTPSGKSDDDFADFHSSKFSS [SYNRG]
- motif_found [18]: FALSE

Substance: NVQRLLEAAEFLERRE
- best_confidence (bait SIN3A_PAH__Q96ST3_295_383, HD2 library, confidence level (1-4) of best matching selected peptide): 3
- best_specificity (bait SIN3A_PAH__Q96ST3_295_383, HD2 library, specificity score of best matching selected peptide): 0.6
- motif_found [8]: TRUE

Substance: NYCPPVKRERTSSL
- motif_found [19]: FALSE

Substance: NYPFTWNTPSAPPGYNIAVK
- motif_found (HD2 library, bait TSG101_UEV__Q99816_1_145, known motif instance of the benchmarking set found (TRUE) or not found (FALSE) among selected peptides): FALSE

Substance: PAAAAANELNNNLPGGAPAA
- motif_found (bait SPSB1_SPRY__Q96BD6_30_231, HD2 library, whether the validated benchmark motif instance was recovered in the ProP-PD selection (TRUE/FALSE)): FALSE
